Here are results for three molecules from patent US20260049105A1, “SELECTIVE MC4R LIGAND FOR TREATING OBESITY AND COGNITIVE LOSS” (ARIZONA BOARD OF REGENTS ON BEHALF OF THE UNIVERSITY OF …, priority 2022, published 2026).

The target in assay [1] is T1, hMC4R (Homo sapiens, UniProt P32245).
T1 construct: expressed in transfected cells; host or cells: HEK293
The assay is described as follows: Competitive receptor binding assay, whole HEK293 cells, 125I-NDP-α-MSH. The conditions noted are these: for inhibition at 10 µM: 40 min, percentage of [125I]NDP-α-MSH displacement at 10 μM, read-out: BE%. Here is the method:
(§1) Competition binding experiments were performed on whole cells. The transfected HEK293 cell line with hMC4Rs were seeded on 96 well plates, 48 hours before the assay, 100,000 cells/well. For the assay, the medium was removed and cells were washed twice with a freshly prepared binding buffer containing 100% minimum essential medium with Earle's salt (MEM, GIBCO), 25 mM HEPES (pH 7.4), 0.2% bovine serum albumin, 1 mM 1,10-phenanthroline, 0.5 mg/L leupeptin, and 200 mg/L bacitracin. […] The medium was subsequently removed and each well was washed twice with the assay buffer. The cells are lysed by the addition of 250 μL of 0.1 NaOH and 250 μL of 1% Triton X-100. […] Data were analyzed using Graphpad Prism 6.0 (Graphpad Software, San Diego, CA).
IC50 and EC50 values represent the mean of duplicate experiments performed in triplicate. IC50 and EC50 estimates and their associated standard errors were determined by fitting the data using nonlinear least-squares analysis, with the help of Graphpad Prism 6.0 (Graphpad Software, San Diego, CA). […]

Assay [2] addresses T2, hMC5R (Homo sapiens, UniProt P33032).
T2 construct: expressed in transfected cells; host or cells: HEK293
Described as above. The following applies: 40 min; hM5CR; percentage of NDP-α-MSH displacement at 10 μM; read-out: BE %. Here is the method: [The procedure below names another target; the source lists this target under the same test.] as §1
(§2) IC50 and EC50 values represent the mean of duplicate experiments performed in triplicate. IC50 and EC50 estimates and their associated standard errors were determined by fitting the data using nonlinear least-squares analysis, with the help of Graphpad Prism 6.0 (Graphpad Software, San Diego, CA).
(§3) NA indicates 0% cAMP accumulation observed at 10 μM. The peptides were tested over a range of concentrations from 10^-10 to 10^-5 M.

Assay [3] deals with T1, hMC4R. Put plainly: Adenylate cyclase (cAMP) assay in transfected HEK293 cells. The format is cell-based. The following applies: hM4CR; 50% maximal intracellular cAMP accumulation, N=4.
The target of assay [4] is T1, hMC4R. The assay is described as above. The conditions noted are these: for Emax at 10 µM: HEK293, 0.05 h, hM4CR, percentage of cAMP produced at 10 μM in relation to MT-II, read-out: Act%. It is filed as cell-based. Here is the method:
The cells were seeded on 96 well plates 48 hours before the assay, (100,000 cells/well). For the assay, the medium was removed and cells were rinsed with 1 mL of MEM buffer (GIBCO) or with Earle's balanced salt solution (EBSS, GIBCO). An aliquot (0.4 mL) of Earle's balanced salt solution was placed in each well along with isobutylmethylxanthine (IBMX; 5 μL; 0.5 mM) for 1 minute at 37° C. Varying concentrations of melanotropins (0.1 mL) were added and the cells incubated for 3 minutes at 37° C. The reaction was stopped by aspirating the buffer and adding ice-cold Tris/EDTA buffer to each well (0.15 mL). The 96 well plates were covered and placed on ice. After dislodging the cells, the plates were placed in a boiling water bath for 15 minutes. The cell lysate was then centrifuged for 10 minutes (4000 rpm), and 50 μL of the supernatant was aliquoted into perkinElmer glass fiber filter plate. cAMP content was measured by competitive binding assay in addition to 50 μL H^3 cAMP and 100 μL PKA. Then the system was placed on ice for 2 hours and then vacuum and filtered. 100 μL of the OptiPhase Supermix scintillation fluid was added to the plate. The plates stayed for 8 hours and then read by MicroBeta radiation plate reader. IC50 and EC50 values represent the mean of duplicate experiments performed in triplicate. […] NA indicates 0% cAMP accumulation observed at 10 μM. The peptides were tested over a range of concentrations from 10^-10 to 10^-5 M.

In assay [5] the target is T3, hMC3R (Homo sapiens, UniProt P41968).
T3 construct: expressed in transfected cells; host or cells: HEK293
Described as above. The format is cell-based. The conditions noted are these: hM3CR; for Emax at 10 µM: HEK293, 0.05 h, cAMP at 10 μM in relation to MT-II, read-out: Act %. The method, then:
(§4) HEK293 cells transfected with human melanocortin receptors were grown to confluence in MEM medium (GIBCO) containing 10% fetal bovine serum, 100 units/mL penicillin and streptomycin, and 1 mM sodium pyruvate. The cells were seeded on 96 well plates 48 hours before the assay, (100,000 cells/well). For the assay, the medium was removed and cells were rinsed with 1 mL of MEM buffer (GIBCO) or with Earle's balanced salt solution (EBSS, GIBCO). An aliquot (0.4 mL) of Earle's balanced salt solution was placed in each well along with isobutylmethylxanthine (IBMX; 5 μL; 0.5 mM) for 1 minute at 37° C. Varying concentrations of melanotropins (0.1 mL) were added and the cells incubated for 3 minutes at 37° C. The reaction was stopped by aspirating the buffer and adding ice-cold Tris/EDTA buffer to each well (0.15 mL). The 96 well plates were covered and placed on ice. After dislodging the cells, the plates were placed in a boiling water bath for 15 minutes. The cell lysate was then centrifuged for 10 minutes (4000 rpm), and 50 μL of the supernatant was aliquoted into perkinElmer glass fiber filter plate. cAMP content was measured by competitive binding assay in addition to 50 μL H^3 cAMP and 100 μL PKA. Then the system was placed on ice for 2 hours and then vacuum and filtered. 100 μL of the OptiPhase Supermix scintillation fluid was added to the plate. The plates stayed for 8 hours and then read by MicroBeta radiation plate reader.
as §2, §3

Assay [6] addresses T2, hMC5R. Described as above. It is filed as cell-based. The conditions noted are these: hM5CR; for Emax at 10 µM: HEK293, 0.05 h, cAMP at 10 μM in relation to MT-II, read-out: Act %. Here is the method:
as §4, §2, §3

The target of assay [7] is T4, hMC1R (Homo sapiens, UniProt Q01726).
T4 construct: expressed in transfected cells; host or cells: HEK293
The description is as above. The following applies: HEK293, 0.05 h; hM1CR; cAMP at 10 μM in relation to MT-II; read-out: Act %. It is filed as cell-based. The method, then: as §4, §2, §3

Assay [8] deals with T3, hMC3R. The assay is described as follows: Competitive receptor binding assay, whole HEK293 cells, 125I-NDP-α-MSH. The following applies: 40 min; hM3CR; percentage of NDP-α-MSH displacement at 10 μM; read-out: BE %. The method, then: [The procedure below names another target; the source lists this target under the same test.] (§5) Competition binding experiments were performed on whole cells. The transfected HEK293 cell line with hMC4Rs were seeded on 96 well plates, 48 hours before the assay, 100,000 cells/well. For the assay, the medium was removed and cells were washed twice with a freshly prepared binding buffer containing 100% minimum essential medium with Earle's salt (MEM, GIBCO), 25 mM HEPES (pH 7.4), 0.2% bovine serum albumin, 1 mM 1,10-phenanthroline, 0.5 mg/L leupeptin, and 200 mg/L bacitracin. […] The medium was subsequently removed and each well was washed twice with the assay buffer. The cells are lysed by the addition of 250 μL of 0.1 NaOH and 250 μL of 1% Triton X-100. The lysed cell was transferred to the 12×75 mm glass tubes and the radioactivity was measured by Wallac 1470 WIZARD Gamma Counter. Data were analyzed using Graphpad Prism 6.0 (Graphpad Software, San Diego, CA).
as §2, §3

Assay [9] addresses T4, hMC1R. Described as above. The conditions noted are these: for inhibition at 10 µM: 40 min, hM1CR, percentage of NDP-α-MSH displacement at 10 μM, read-out: BE %. The method, then:
[The procedure below names another target; the source lists this target under the same test.] as §5, §2, §3

The target of assay [10] is T1, hMC4R. The assay is described as follows: Plasmon waveguide resonance (PWR) spectrum of hMC4R membranes with agonists.
Description: PWR uses polarized light generated from a CW He—Ne laser (λ=632.8 nm or λ=543.5 nm), which passes through a glass prism under total internal reflection conditions. A thin metal film (Ag), which is deposited on the external surface of the prism, is overcoated with another thin layer of SiO2 as dielectric media. When there is an object attached to the dielectric layer of SiO2, and polarized laser forms a specific incident angle with the outer surface layer, the resonant excitation of collective electronic oscillations (plasmons) happens and generates an evanescent electromagnetic field localized at the dielectric film, which gives the absorption spectrum at that specific angle. This can be used to probe the optical properties of molecules immobilized on the outer surface of the prism. Resonance is achieved either by varying the laser light wavelength at a fixed angle or by varying the angle at a fixed laser wavelength(we used the latter one in this research). Any changes of the immobilized yield distinct incident angle that evanescence happens in the dielectric layer. Due to the ability that laser light can be polarized to either parallel (p) or perpendicular (s) to the incident plane, characterization of the molecular organization of anisotropic systems can be fulfilled, such as biomembranes containing integral proteins. Under the experimental conditions described herein, the optical parameters obtained with the p-polarization refer to the perpendicular direction, and those obtained with s-polarization refer to the parallel direction, relative to the bilayer membrane surface.
Resonance spectra in this study were obtained using a PWR instrument from Biopeptek Pharmaceuticals LLC. […] Recombinant HEK293 cells expressing the hMC4R were grown to confluency. The confluent cell monolayers were then washed with Ca^2+ and Mg^2+-deficient phosphate-buffered saline and were harvested in the same buffer containing 0.02% ethylenediaminetetraacetic acid (EDTA). After centrifugation at 1500 g for 10 minutes, the cells were homogenized in an ice-cold 10 mM Tris-HCl buffer and 1 mM EDTA (pH 7.4). A crude membrane fraction was collected by centrifugation at 40,000 g for 20 minutes at −4° C. and was stored at −80° C. until use. Before the PWR experiment, the membrane fraction was resuspended in a 20 mM Tris-HCl buffer (pH 7.4) by mild homogenization. Protein concentration was determined by using a Bradford assay.
Under the experimental conditions employed herein, the oscillation of light with p-polarization reflects the dimension of objects perpendicular to the membrane, and those obtained under the s-polarization vector refer to the dimension in parallel with the bilayer membrane surface.

T2 sequence (P33032 whole entry): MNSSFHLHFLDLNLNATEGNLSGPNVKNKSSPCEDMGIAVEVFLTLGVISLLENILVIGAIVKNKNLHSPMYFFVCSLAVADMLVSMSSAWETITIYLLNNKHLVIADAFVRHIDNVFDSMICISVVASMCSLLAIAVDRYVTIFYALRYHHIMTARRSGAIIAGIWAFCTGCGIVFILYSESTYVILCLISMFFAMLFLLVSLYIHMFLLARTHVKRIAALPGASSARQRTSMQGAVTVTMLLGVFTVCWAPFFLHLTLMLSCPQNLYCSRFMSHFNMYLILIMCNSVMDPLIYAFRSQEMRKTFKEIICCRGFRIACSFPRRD
T1 sequence (P32245 whole entry): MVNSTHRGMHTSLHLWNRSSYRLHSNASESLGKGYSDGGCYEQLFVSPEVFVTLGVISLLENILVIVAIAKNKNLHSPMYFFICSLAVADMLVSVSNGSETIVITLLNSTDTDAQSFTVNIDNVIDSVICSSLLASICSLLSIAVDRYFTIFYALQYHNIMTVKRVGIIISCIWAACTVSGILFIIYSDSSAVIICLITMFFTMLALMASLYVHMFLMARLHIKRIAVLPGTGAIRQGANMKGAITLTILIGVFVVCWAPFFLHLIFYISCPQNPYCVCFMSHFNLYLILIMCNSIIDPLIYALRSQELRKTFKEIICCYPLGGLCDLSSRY
T3 sequence (P41968 whole entry): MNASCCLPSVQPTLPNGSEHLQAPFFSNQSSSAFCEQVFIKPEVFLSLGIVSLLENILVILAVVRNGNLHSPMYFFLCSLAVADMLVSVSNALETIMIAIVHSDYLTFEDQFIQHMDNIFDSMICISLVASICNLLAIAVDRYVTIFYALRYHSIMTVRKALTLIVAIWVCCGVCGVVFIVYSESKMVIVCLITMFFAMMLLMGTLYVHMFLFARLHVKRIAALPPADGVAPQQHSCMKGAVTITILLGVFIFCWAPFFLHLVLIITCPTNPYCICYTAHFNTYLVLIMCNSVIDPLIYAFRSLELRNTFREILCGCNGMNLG
T4 sequence (Q01726 whole entry): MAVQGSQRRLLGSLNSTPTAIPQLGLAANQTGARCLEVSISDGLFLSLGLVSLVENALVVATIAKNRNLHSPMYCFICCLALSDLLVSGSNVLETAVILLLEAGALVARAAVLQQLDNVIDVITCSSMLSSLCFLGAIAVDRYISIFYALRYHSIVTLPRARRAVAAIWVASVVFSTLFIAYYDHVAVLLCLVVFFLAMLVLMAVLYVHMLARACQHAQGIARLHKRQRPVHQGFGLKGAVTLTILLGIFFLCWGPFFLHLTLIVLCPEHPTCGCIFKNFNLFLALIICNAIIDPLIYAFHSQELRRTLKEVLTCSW

Usually IC50 stands for the concentration that gives 50% inhibition. The term EC50 denotes the concentration that produces a half-maximal response. A low value points to an effect from little substance. `CC(=O)N[C@@H](CCCNC(=N)N)C(=O)N[C@H]1CC(=O)NCCCC[C@@H](C(N)=O)NC(=O)[C@H](Cc2c[nH]c3ccccc23)NC(=O)C[C@H](CCCNC(=N)N)NC(=O)[C@@H](Cc2ccc(F)cc2)NC(=O)[C@@H]2CCCCN2C1=O` [compound 5, Ac-Arg-cyclo[Asp-Pip-D-Phe(4-F)-βArg-Trp-Lys]-NH2]: the inhibition at 10 µM at hMC4R [1] (hM4CR) worked out at 23%; on hMC5R [2], 0%; at hMC3R [8], 100%; at hMC1R [9], 100%. The molecule further came in with a concentration for half-maximal inhibition (IC50) on hMC4R [1] (hM4CR, concentration of peptide at 50% specific binding, N=4) of over 1000 nM. Besides, the EC50 was over 1000 nM on hMC4R [3]; over 1000 nM on hMC3R [5] (cAMP accumulation, N=4); over 1000 nM on hMC5R [6] (cAMP accumulation, N=4). The Emax at 10 µM at hMC4R [4] came to 84%; on hMC3R [5], 59%; on hMC5R [6], 62%; on hMC1R [7], 100%.
For `CC(=O)N[C@@H](CCCNC(=N)N)C(=O)N[C@H]1CC(=O)NCCCC[C@@H](C(N)=O)NC(=O)C[C@H](Cc2c[nH]c3ccccc23)NC(=O)[C@H](CCCNC(=N)N)NC(=O)[C@@H](Cc2ccccc2)NC(=O)[C@@H]2CCCCN2C1=O` [compound 1, Ac-Arg-cyclo[Asp-Pip-D-Phe-Arg-BTrp-Lys]-NH2], the inhibition at 10 µM came out at 0% on hMC4R [1] (hM4CR), 66% at hMC5R [2], 60% at hMC3R [8] and 100% at hMC1R [9]. Further, the 50% effective concentration (EC50) at hMC4R [3] was over 1000 nM. For the same molecule, the Emax at 10 µM on hMC4R [4] is 63%; at hMC3R [5] it was 88%; on hMC5R [6], 95%; at hMC1R [7], 88%.
In the case of `CC(=O)N[C@@H](CCCNC(=N)N)C(=O)N[C@H]1CC(=O)NCCCC[C@@H](C(N)=O)NC(=O)C[C@H](Cc2c[nH]c3ccccc23)NC(=O)C[C@H](CCCNC(=N)N)NC(=O)[C@@H](Cc2ccc(Cl)cc2)NC(=O)[C@@H]2CCCCN2C1=O` [compound 9, Ac-Arg-cyclo[Asp-Pip-D-Phe(4-Cl)-βArg-BTrp-Lys]-NH2], the inhibition at 10 µM worked out at 100% on hMC4R [1] (hM4CR), 75% on hMC5R [2], 10% at hMC3R [8] and 100% at hMC1R [9]. The “times higher in binding affinity to hMC4R than hMC1R” value at hMC4R [1] (hMC4R vs hMC1R) was “about 68 times”. Also, the “times higher in binding affinity to hMC4R than hMC3R” value at hMC4R [1] (hMC4R vs hMC3R) is on record as “over 1000 times”. Besides, the “times higher in binding affinity to hMC4R than hMC5R” value at hMC4R [1] (hMC4R vs hMC5R) is recorded as “over 1000 times”. Moreover, the Emax at 10 µM stood at 87% at hMC4R [4], 63% on hMC3R [5], 76% at hMC5R [6] and 90% at hMC1R [7]. Moreover, at hMC4R [4] (comparing the EC50 of a compound for each receptor), the “selectivity for hMC4R (in words)” value is on record as “selective agonist of hMC4R”. In addition, the “PWR peak location under p-polarization” value at hMC4R [10] (p-polarization, hMC4R sole 26.44) was 26.95. Besides, on hMC4R [10] (s-polarization), the “PWR shift under s-polarization (in words)” value is “no significant change”. The “hMC1R binding affinity (in words)” value at hMC1R [9] (compared with the other analogues) is on record as “lower binding affinities than the others”.
